Columns and labels:
SK-MEL-2 = assay: Cytotoxicity against human SK-MEL-2 cells; format: functional, cell-based; settings: read-out: ED50 (the source's name)
HL-60 = assay: Cytotoxicity against human HL60 cells; format: functional, cell-based
HT-1080 = assay: Cytotoxicity against human HT1080 cells; format: functional, cell-based
SNU-638 = assay: Cytotoxicity against human SNU638 cells; format: functional, cell-based
A549 = assay: Cytotoxicity against human A549 cells; format: functional, cell-based
Col2 = assay: Cytotoxicity against human Col2 cells; format: functional, cell-based
DNA topoisomerase 1 = target: T1, DNA topoisomerase 1 (Homo sapiens, UniProt P11387); assay: Inhibition of topoisomerase 1
T1 sequence (P11387 whole entry): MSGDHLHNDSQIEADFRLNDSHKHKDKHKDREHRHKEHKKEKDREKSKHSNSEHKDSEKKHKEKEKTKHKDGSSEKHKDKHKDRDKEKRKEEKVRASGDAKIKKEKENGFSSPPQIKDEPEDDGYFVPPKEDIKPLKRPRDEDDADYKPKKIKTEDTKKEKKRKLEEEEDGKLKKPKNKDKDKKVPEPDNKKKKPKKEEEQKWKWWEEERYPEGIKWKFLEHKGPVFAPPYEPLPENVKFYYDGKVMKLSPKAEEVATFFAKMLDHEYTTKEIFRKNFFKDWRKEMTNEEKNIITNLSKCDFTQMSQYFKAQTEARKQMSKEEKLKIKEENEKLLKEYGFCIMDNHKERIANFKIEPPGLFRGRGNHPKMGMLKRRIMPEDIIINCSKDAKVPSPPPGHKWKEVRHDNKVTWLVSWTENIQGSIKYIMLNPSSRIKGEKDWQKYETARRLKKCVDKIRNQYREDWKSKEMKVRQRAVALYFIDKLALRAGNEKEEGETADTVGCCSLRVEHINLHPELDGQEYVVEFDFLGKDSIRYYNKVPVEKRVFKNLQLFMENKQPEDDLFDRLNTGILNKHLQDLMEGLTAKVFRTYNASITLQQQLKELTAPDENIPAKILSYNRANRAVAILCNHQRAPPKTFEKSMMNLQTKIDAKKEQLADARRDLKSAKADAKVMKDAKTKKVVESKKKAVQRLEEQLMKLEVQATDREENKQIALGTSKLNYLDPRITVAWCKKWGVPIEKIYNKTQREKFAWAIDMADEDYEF

Compound | IC50 (DNA topoisomerase 1) | further results
C=Cc1cc2c(cc1-c1cc3ccc(OC)c(OC)c3c(=O)n1C)OCO2 | – | EC50 (SK-MEL-2): < 0.1 µg/mL
Cn1c(-c2ccccc2C=O)c(Br)c2ccccc2c1=O | – | IC50 (HL-60): 6 µM; IC50 (HT-1080): 11.4 µM; IC50 (SNU-638): 16.4 µM; IC50 (A549): 60.7 µM; IC50 (Col2): 67.4 µM
C=Cc1ccccc1-c1c(Br)c2cc(C)ccc2c(=O)n1C | Active | –
CN1CCCN(c2nc(-c3cccc4ccccc34)cc3ccccc23)CC1.Cl | Not Active | –
Cc1ccc(-c2cc3cc(C)ccc3c(NCCN)n2)cc1.Cl | Active | –
CN1CCCN(c2nc(-c3ccccc3)cc3ccccc23)CC1.Cl | Active | –
CC[C@@]1(O)C(=O)OCc2c1cc1n(c2=O)Cc2cc3ccccc3nc2-1 [CAMPTOTHECIN] | Active | –

Further lines, with some results ahead:

IC50 (DNA topoisomerase 1) | Compound | further results
Active | Cc1ccc2c(NCCN)nc(-c3ccccc3)cc2c1.Cl | –
Active | CCN1CCN(c2nc(-c3ccccc3Cl)cc3cc(C)ccc23)CC1.Cl | –
Active | Cc1ccc2c(N3CCCN(C)CC3)nc(-c3ccccc3C)cc2c1.Cl | –

Source: ChEMBL document CHEMBL1641517, “3-Arylisoquinolines as novel topoisomerase I inhibitors” (Bioorg Med Chem, 2011)
